Values quoted from earlier work in patent US20080077374A1, “Method for predicting biological, biochemical, biophysical or pharmacological characteristics of a substance” (priority 2006, published 2008).
Read-outs that look alike come from different tables or passages of the source.

What was measured:
male Sprague Dawley rats = settings: for Diagnosis cc: clinical chemistry; for Diagnosis histo: histopathology; for Main target: main toxicity target; for observed severity of histological lesions: liver, labelled by COMET1 study number
HanWistar rats = HanWistar rats (study R12)
[1] = SpragueDawley rats, refinement of the principal toxicity

Row | Compound | Diagnosis cc (male Sprague Dawley rats; SpragueDawley rats) | Diagnosis histo (male Sprague Dawley rats; SpragueDawley rats) | Main target (male Sprague Dawley rats; SpragueDawley rats) | observed severity of histological lesions (male Sprague Dawley rats) | 2nd toxicity (male Sprague Dawley rats; rat, in vivo) | Subclass/Indication (male Sprague Dawley rats; SpragueDawley rats) | Tox class (male Sprague Dawley rats; SpragueDawley rats, highest dose level, pathology at 48 h post dose, assumed organ toxicity class) | 2nd toxicity (male Sprague Dawley rats; [1]) | 2nd toxicity (HanWistar rats) | Subclass/Indication (HanWistar rats) | Diagnosis cc (HanWistar rats; clinical chemistry) | Diagnosis histo (HanWistar rats; histopathology) | Main target (HanWistar rats; main toxicity target)
1 | S=C=Nc1cccc2ccccc12 [ANIT] | + | 2bil | Hepatotoxic | no or minimal liver lesions |  |  |  |  |  |  |  |  | 
2 | CC(=O)Nc1nnc(S(N)(=O)=O)s1 [Acetazolamide] |  |  |  |  | Papilla |  |  |  |  |  |  |  | 
3 | Cl.N [Ammonium Chloride] | + | 0 | Kidney |  |  | Non-Toxic | ntx | Metabolic |  |  |  |  | 
4 | CCOC(=O)C(C)(C)Oc1ccc(Cl)cc1 [Clofibrate] | + | 9sub | Hepatotoxic | no or minimal liver lesions | Peroxisome | Toxicant |  |  |  |  |  |  | 
5 | CN(C)N=O [Di-methylnitrosamin] | + | 2 | Hepatotoxic | marked liver lesions |  | Toxicant |  | Direct reaction |  |  |  |  | 
6 | NN [Hydrazine] | + | 7 | Hepatotoxic |  |  | Toxicant |  | Steatosis | Steatosis | Toxicant | + | 7 | Hepatotoxic
7 | O=C(O)/C=C\C(=O)O [Maleic acid] |  |  |  |  | Proximal |  |  |  |  |  |  |  | 
8 | [Cl][Hg][Cl] [Mercury Chloride] | + | 3 | Nephrotoxic |  |  | Toxicant |  | Proximal |  |  |  |  | 
9 | CN(Cc1cnc2nc(N)nc(N)c2n1)c1ccc(C(=O)N[C@@H](CCC(=O)O)C(=O)O)cc1 [Methotrexate] | − | 1hea | Hemotoxic |  | Liver & kidney | Toxicant |  |  |  |  |  |  | 
10 | CO[C@@]12[C@H](COC(N)=O)C3=C(C(=O)C(C)=C(N)C3=O)N1C[C@@H]1N[C@@H]12 [Mitomycin] |  | 1hae |  |  | Tubules, blood |  |  |  |  |  |  |  | 
11 | CNC=O [N-methylformamid] | + | 2 | Hepatotoxic |  |  | Toxicant |  | Direct reaction |  |  |  |  | 
12 | CN[C@H](CC(C)C)C(=O)N[C@H]1C(=O)N[C@@H](CC(N)=O)C(=O)N[C@H]2C(=O)N[C@H]3C(=O)N[C@H](C(=O)N[C@H](C(=O)O)c4cc(O)cc(O)c4-c4cc3ccc4O)[C@H](O)c3ccc(c(Cl)c3)Oc3cc2cc(c3O[C@@H]2O[C@H](CO)[C@@H](O)[C@H](O)[C@H]2O[C@H]2C[C@](C)(N)[C@H](O)[C@H](C)O2)Oc2ccc(cc2Cl)[C@H]1O [Vancomycin] | + | 3reg | Nephrotoxic |  |  | Toxicant |  | Proximal |  |  |  |  | 
13 | Gentamicin | + | 3sub | Nephrotoxic |  |  | Toxin |  | Proximal |  |  |  |  | 
